Results as given in patent publication US9045415B2, “Targeting of EWS-FLI1 as anti-tumor therapy” (Georgetown University, priority 2006, dated 2015).

What was measured:
ESFT cell line CHP-100 = assay: CHP-100 tumors in nude mice treated with YK-4-275; format: in vivo; conditions: treated for 4 days when tumors palpable
Protocol: Nude mice were inoculated with ESFT cell line CHP-100. When tumors were palpable, animals were treated with YK-4-275 (NSC635437) for 4 days. Curves show tumor volumes over time.

[1] = test system: neuroblastoma SKNAS cells; assay: Monolayer cell growth, neuroblastoma; format: cell-based; conditions: SK-N-AS, 72 hours continuous presence
Excerpt: FIGS. 8A-E show E9RP inhibits ESFT cell growth. In FIGS. 8A and 8B, E9RP is the peptide region of RHA (SEQ ID NO:29) fused to the Penetratin peptide (from the Antennapedia homeodomain; SEQ ID NO:34) and contains amino-terminal fluorescein (FITC). […] Neither lipids nor electricity were used for transduction of peptides into cells. Confocal microscopy identified peptide throughout cells with nuclear uptake. Nuclear uptake was confirmed by DAPI staining. […] Cell lines were placed in 96-well plates with either vehicle alone (●), or E9RP (10 μM) on days 0, 3 and 5 (▴). No lipid or other transfection method was utilized. This represents two experiments with similar results. FIG. 8D depicts dose response of ESFT 1 to either wild-type or single amino-acid mutant peptides. (▪) wild-type E9RP, (E9R (SEQ ID NO:29) fused to the Penetratin peptide (SEQ ID NO:34)), (▾)(E9RP (P2A peptide (SEQ ID NO:30) fused to the Penetratin peptide (SEQ ID NO:34)), (▴)E9RP (D5A peptide (SEQ ID NO:31) fused to the Penetratin peptide (SEQ ID NO:34)). Growth normalized to treating cells with the 16 aa Antp sequence alone (SEQ ID NO:34). FIG. 8E is a comparison of wild-type versus mutant peptides in ESFT and NB cells.
In FIG. 13A, recombinant EWS-FLI1 was treated with NSC635437 for 30 minutes. GST-RHA (630-1020) was added and the complexes were then precipitated with antibody to EWS-FLI1 and Protein G beads. Resolved complexes showing the immunoprecipitated complex control without compound are in lanes 3 (0.1% DMSO) and 5 (0.01% DMSO). […] ESFT TC32 (◯) and neuroblastoma SK-N-AS (▪) were grown for 72 hours in the continuous presence of NSC635437. Cells were incubated in MTT reagent for 4 hours and the dried precipitate was dissolved isopropanol and the absorbance read at 570 nm. Each cell line was standardized to the growth of the DMSO control.
FIG. 30 provides data to show E9R peptide prevents EWS-FLI1 binding to RHA with specific detrimental effects upon ESFT growth and transformation. […] Scale bar equals 20 μm. […] Only expression of EGFP-E9R in TC71 reduced anchorage independent growth. […] Scale bar equals 20 μm.

[2] = test system: cyclin D levels in TC32 cells; assay: Cyclin D immunoblot, TC32 cells; format: cell-based; conditions: TC32 cells treated for 14 hours
panel of ESFT cell lines = assay: Cell growth (WST), panel of ESFT cell lines; format: cell-based; conditions: 72 h, 3 days
Protocol: (§1) FIG. 33 provides data showing YK-4-279 is potent and specific inhibitor of ESFT. […] Cell number was measured by MTT or WST reduction after seven days in culture. […] FIG. 33D cell lines expressing EWS-FLI1 compared to non-EWS-FLI1 malignant cell lines following 3 days in culture to establish the IC50 using WST assay. […] Graph plots level of fluorescence in treated divided by untreated lysate. […] Scale bar equals 200 μm.

[3] = test system: ESFT xenografts (TC71 and CHP-100); assay: ESFT orthotopic xenografts treated with YK-4-279; format: in vivo, mice
Protocol: Xenografts were established with injection of either ESFT (CHP-100 or TC71) or Prostate cancer (PC3) cells. […] Single experiment growth curves depicted are representative of five independent experiments. […] Tumor volumes at day 14 after treatment initiation compared across 5 experiments (DMSO n=19, YK-4-279 n=25, p<0.0001, by Mann-Whitney test).
One million TC71 or CHP-100 cells in 100 μL HBSS were injected orthotopically into the gastrocnemius muscle of 4-8 week old SCID/bg mice (Taconic, Germantown, N.Y.). Prostate cancer xenografts were established by subcutaneous injection of 5 million PC3 cells into the flanks of 4-8 week old nude mice (Taconic). Mice were randomized to receive three times per week intraperitoneal injections of DMSO, YK-4-279 at 1.5 mg/dose when tumors were palpable. Each of the animal experiments was begun with 10 mice that were randomized into treatment and control groups when the tumors reached palpable size. In the control groups some tumors exceeded the IACUC maximal size (2 cm in any dimension) and were euthanized prior to day 14 and thus not included in the day 14 analysis (FIG. 6c). Tumor length and width were measured every 2-4 days and volume was calculated using the formula […] where D is the longest diameter and d is the shorter diameter. Xenograft studies were approved by the Memorial Sloan-Kettering Cancer Center Institutional Animal Care and Use Committee.

ES925 = assay: Cell growth, primary ESFT line ES925; format: cell-based; conditions: Homo sapiens, 72 h; 3 days; read-out: anti-proliferative IC50
Protocol: as §1

[4] = test system: cell lines that lack EWSFLI1; assay: Cell growth (WST), cell lines that lack EWS-FLI1; format: cell-based; conditions: 72 h, 3 days
Protocol: as §1

[5] = test system: non-transformed HEK293 cells; assay: Cell growth, HEK293; format: cell-based; conditions: TC32 vs HEK293
Protocol: as §1

NFκB responsive promoter = assay: NFκB responsive reporter in COS7 cells activated with PMA; format: cell-based; conditions: after PMA
Protocol: FIG. 38A provides data showing COST cells transfected with an NFκB reporter construct followed by stimulation with PMA. Cells were treated with YK-4-279 following PMA treatment. Cell lysates were analyzed for NFκB induced luciferase activity as standardized to LTR activated renilla luciferase.

EWS-FLI1 = assay: SPR displacement assay of E9R from EWS-FLI1; format: binding
Excerpt: FIG. 31 provides data showing a small molecule binding to EWS-FLI1 and displaces E9R from EWS-FLI1. […] Aromatic functionalization produced YK-4-279 a para-methoxy derivative of NSC635437. […] A FLI1 antibody complexed EWS-FLI1 and precipitated it from the solution.
An aromatic optimization strategy was used to design analogs to improve upon the activity of NSC635437.

[6] = test system: ESFT cell lines (TC32, A4573, TC71, and ES925); assay: Caspase-3 activity (DEVD-AMC cleavage), ESFT cell lines; format: cell-based; conditions: 24 hours
Protocol: Cells were treated for 24 hours with 10 μM YK-4-279. The Caspase-3 substrate DEVD-AMC was incubated with equal amounts of protein lysate and fluorescence from cleaved substrate measured in a fluorimeter. TC32 and non-transformed cells HEK-293, HFK, and HEC were treated for 6 hours with high dose (50 μM) YK-4-279. DAPI stained cells were photographed at 600× using inverted fluorescence microscope.

| Compound | tumor growth (ESFT cell line CHP-100) | cell growth (MTT) [1] | cyclin D levels [2] | IC50 (panel of ESFT cell lines) [nM] | tumor growth ([3]; 60-75 mg/kg) | tumor growth rate ([3]; CHP-100, 1.5 mg/dose i.p. three times per week) | increase in caspase-3 activity in tumors compared to control animals ([3]; CHP-100 xenograft tumors, immunohistochemistry) [fold] | overall response, tumor volumes at day 14, five experiments ([3]; TC71 and CHP-100, 1.5 mg/dose) | pathological analysis of treated animals ([3]; mouse, in vivo) | IC50 (ES925) [nM] | IC50 [4] [nM] | difference in IC50, ESFT cells compared to HEK293 [5] [fold] | NFκB responsive promoter activity (NFκB responsive promoter) | binding of E9R to EWS-FLI1 (EWS-FLI1; 32 μM E9R with 10 μM YK-4-279) [R.U.] | binding of E9R to EWS-FLI1 (EWS-FLI1; 64 μM E9R with 10 μM YK-4-279) [R.U.] | caspase-3 activity ([6]; TC32 cells, dose range) | caspase-3 activation ([6]; four ESFT cell lines, 10 μM) |
| --- | --- | --- | --- | --- | --- | --- | --- | --- | --- | --- | --- | --- | --- | --- | --- | --- | --- |
| O=C(CC1(O)C(=O)Nc2c(Cl)ccc(Cl)c21)c1ccc(Cl)cc1 (centres unmarked) [NSC635437, 4,7-Dichloro-3-[2-(4-chlorophenyl)-2-oxoethyl]-3-hydroxyl-1,3-dihydro-2H-indol-2-one] | inhibition of tumor growth | not neuroblastoma cell growth | – | – | – | – | – | – | – | – | – | – | – | – | – | – | – |
| COc1ccc(C(=O)CC2(O)C(=O)Nc3c(Cl)ccc(Cl)c32)cc1 (centres unmarked) [YK-4-279, 4,7-Dichloro-3-hydroxy-3-[2-(4-methoxyphenyl)-2-oxoethyl]-1,3-dihydro-2H-indol-2-one] | – | – | nearly eliminated cyclin D levels | 500 to 2000 | significantly reduced tumor growth | reduced | 3 | marked overall tumor reduction | did not show any signs of toxicity except changes related to IP injection | 1000 | > 25000 | 10 | did not affect the NFκB responsive promoter | 5 | 7 | rose in a dose dependent fashion | induced caspase-3 activity |
